Data set [1] has as its target T1, full-length tau (T40; htau40 isoform) / truncated tau (12-kDa fragment) in 3T6 fibroblast cells (Homo sapiens, UniProt P10636).
T1 construct: fibroblast cells (3T6) express full-length tau; PHF-core tau fragment (12-kDa fragment); expressed in transfected cells; host or cells: 3T6 fibroblast cells
The data set can be described thus: cellular tau aggregation inhibition assay (truncated 12-kDa tau / full-length T40 band ratio on immunoblots). The conditions noted are these: for activity at 20 µM / activity at 2 µM: single concentration test, vs untreated cells, ~1.0 negative, <0.5 positive inhibitor, read-out: Truncated tau/T40 ratio (n = 3); for activity at 20 µM: tested at 20 μM; for EC50: full assay, concentration at which truncated tau:full-length tau ratio is 50% of that without TAI, mean for replicates, NE = no effect, read-out: EC50. Type of data set: cell-based. As to the method:
A cell-based tau aggregation assay was performed as described previously. The process is described in more detail in WO 02/055720. In essence, fibroblast cells (3T6) express full-length tau (“T40”; the htau40 isoform) under control of an inducible promotor, and low constitutive levels of the PHF-core tau fragment (12-kDa fragment). When T40 expression is induced, it undergoes aggregation-dependent truncation within the cell, N-terminally at approximately amino acid residue 295 and C-terminally at approximately residue 390, thereby producing higher levels of the 12-kDa PHF-core domain fragment. Production of the 12-kDa fragment can be blocked in a dose-dependent manner by tau-aggregation inhibitors. Indeed, the quantitation of inhibitory activity of compounds with respect to proteolytic generation of the 12-kDa fragment within cells can be described entirely in terms of the same parameters which describe inhibition of tau-tau binding in vitro. That is, the extent of proteolytic generation of the 12-kDa fragment within cells is determined entirely by the extent to tau-tau binding through the repeat domain.
[…] MTC was included as a reference tau aggregation inhibitor. For single concentration tests. The ratio of the quantity of both of the protein bands at different concentrations of TAI is measured, to correct for the level of expression of full-length tau and for cell density, particularly at high concentration of TAIs.
The inhibitory ratio (IR) is calculated by the equation:
Where IR^x=inhibitory ratio for compound at x mM; S=signal on immunoblot (mean) for truncated tau (trunc. tau) or full-length tau (full tau) bands for compound at 0 or x mM. A ratio of 1.0 indicates no effect, whereas values decreasing from 1.0 indicate increasing inhibitory action. A curve is generated for different concentrations and the EC50 value for the TAI is defined as the concentration at which the ratio of truncated tau: full-length tau is 50% of that ratio measured in the absence of TAI; this is determined graphically.
The concentration at which there is 50% inhibition of the 12-kDa band relative to T40 (referred to as the EC50 value) was calculated from a graph of the protein band ratios relative to those observed in untreated cells.
For orientation: In western blotting, separated proteins are transferred to a membrane and probed.

Data set [2] can be described thus: toxicity in cells (lactate dehydrogenase assay, 24 hrs). Type of data set: cell-based. The conditions noted are these: mouse, 3t6 fibroblasts; concentration at which 50% of cells are killed; 24 hrs exposure; read-out: LD50. The method, then:
Toxicity of the compounds described herein was assessed using the fibroblast cells used in the cell-based assay described above to assess EC50. Toxicity was measured by cell numbers after 24 hrs exposure to the compound using a lactate dehydrogenase assay kit TOX-7 (Sigma Biosciences) according to the manufacturer's instructions after lysis of remaining cells. Alternatively, a kit from Promega UK (CytoTox 96) was used, again according to the manufacturer's instructions. LD50 is determined as the concentration of compound at which 50% of cells are killed.

Where two headings read alike, the source gives them in different places.

The text below walks through data of patent publication US20260327217A1, “THIAZOLE DERIVATIVES AS TAU AGGREGATION INHIBITORS” (WisTa Laboratories Ltd., priority 2022, published 2026).

T1 sequence (P10636 1-441 isoform P10636-8): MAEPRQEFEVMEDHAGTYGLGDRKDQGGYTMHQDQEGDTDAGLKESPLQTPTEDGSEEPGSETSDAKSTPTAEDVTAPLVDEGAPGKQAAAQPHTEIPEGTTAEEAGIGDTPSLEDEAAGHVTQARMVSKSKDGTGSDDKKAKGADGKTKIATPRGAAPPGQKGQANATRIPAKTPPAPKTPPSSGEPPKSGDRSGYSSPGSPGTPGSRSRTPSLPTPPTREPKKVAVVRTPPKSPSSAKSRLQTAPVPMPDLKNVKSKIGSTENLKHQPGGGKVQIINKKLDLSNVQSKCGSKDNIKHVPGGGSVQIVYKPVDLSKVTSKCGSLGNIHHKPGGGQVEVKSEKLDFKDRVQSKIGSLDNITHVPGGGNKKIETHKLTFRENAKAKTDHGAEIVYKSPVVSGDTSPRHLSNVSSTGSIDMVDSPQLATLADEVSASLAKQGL

Take `O=C(NCc1cc(-c2ccccc2)[nH]n1)c1csc(NS(=O)(=O)CCO)n1` [Compound 13]: the activity at 20 µM in data set [1] is 112 ± 16.2%. For the same compound, the CC50 at 24 h in data set [2] was 197 ± 8.1 µM.

Take `O=C(NCc1nc2cc(Cl)ccc2[nH]1)c1csc(NS(=O)(=O)CCO)n1` [Compound 12]: in data set [1], the activity at 20 µM came to 101 ± 8.8%. For the same compound, the CC50 at 24 h in data set [2] was found to be 197 ± 11.9 µM.

Turning to `CS(=O)(=O)Nc1nc(C(=O)NCc2ccc[nH]2)cs1` [Compound 1], the activity at 2 µM in data set [1] (>2.0 aggregation enhanced) is 501 ± 40.4%. In addition, in data set [2], the CC50 at 24 h was 247 ± 16 µM.

In the case of `CN(c1nc(C(=O)NCc2cccn2C)cs1)S(C)(=O)=O` [Compound 8], in data set [1] (>2.0 aggregation enhanced), the activity at 2 µM is 7.8 ± 1.4%. Further, in data set [2], the CC50 at 24 h was 204 ± 39 µM.

As for `CS(=O)(=O)Nc1nc(C(=O)NCc2cc3ccccc3[nH]2)cs1` [Compound 3], the activity at 2 µM in data set [1] (>2.0 aggregation enhanced) came out at 228 ± 44.9%. Further, the CC50 at 24 h in data set [2] is 212 ± 14 µM.

For the compound `CC(C)(C)CCNC(=O)c1csc(NS(C)(=O)=O)n1` [Compound 6], the activity at 2 µM in data set [1] (>2.0 aggregation enhanced) stood at 88.8 ± 5.7%. Also, the CC50 at 24 h in data set [2] was found to be 217 ± 2.7 µM.

With `CS(=O)(=O)Nc1nc(C(=O)NCc2cc(-c3ccccc3)[nH]n2)cs1` [Compound 5], in data set [1] (>2.0 aggregation enhanced), the activity at 2 µM was 72.7 ± 11.3%. In addition, in data set [2], the CC50 at 24 h came to 252 ± 23 µM.

Broadly, the EC50 is the concentration at which the effect is half-maximal. `CC(C)(C)CCNC(=O)c1csc(NS(=O)(=O)CCO)n1` [Compound 14]: the EC50 in data set [1] was found to be 3.7 µM. In addition, the activity at 2 µM in data set [1] (tested at 2 μM) came to 38.1 ± 14.6%. In addition, in data set [2], the CC50 at 24 h was found to be 263 ± 39 µM.

As to `O=C(NCc1ccc[nH]1)c1csc(NS(=O)(=O)CF)n1` [Compound 15], the activity at 2 µM in data set [1] (>2.0 aggregation enhanced) came out at 120 ± 25.7%. In data set [2], the CC50 at 24 h turned out to be 221 ± 35 µM.

`Cn1cccc1CNC(=O)c1csc(NS(C)(=O)=O)n1` [Compound 2]: the activity at 2 µM in data set [1] (>2.0 aggregation enhanced) was determined as 86.4 ± 5.9%. For the same compound, the CC50 at 24 h in data set [2] is 253 ± 40 µM.

For the compound `Cn1cccc1CNC(=O)c1csc(NS(=O)(=O)CF)n1` [Compound 16], in data set [1], the activity at 20 µM was determined as 62.8 ± 5.1%. For the same compound, the CC50 at 24 h in data set [2] came out at 236 ± 25 µM.

As to `CC(C)(C)CCNC(=O)c1csc(NS(=O)(=O)CF)n1` [Compound 20], the activity at 2 µM in data set [1] (>2.0 aggregation enhanced) turned out to be 80.3 ± 42.4%. In data set [2], the CC50 at 24 h was 186 ± 13 µM.

`CNS(=O)(=O)Nc1nc(C(=O)NCc2nc3cc(Cl)ccc3[nH]2)cs1` [Compound 22]: the activity at 2 µM in data set [1] (>2.0 aggregation enhanced) was 136 ± 59.1%. The CC50 at 24 h in data set [2] amounted to 228 ± 36 µM.

Turning to `O=C(NCc1cc2ccccc2[nH]1)c1csc(NS(=O)(=O)CF)n1` [Compound 17], the activity at 2 µM in data set [1] (tested at 2 μM) is 53.2 ± 15%. Moreover, the CC50 at 24 h in data set [2] came to 228 ± 40 µM.

Consider `O=C(NCc1cc(-c2ccccc2)[nH]n1)c1csc(NS(=O)(=O)CF)n1` [Compound 19], for which the activity at 2 µM in data set [1] (>2.0 aggregation enhanced) was 197 ± 94.6%. In data set [2], the CC50 at 24 h turned out to be 231 ± 38 µM.

`CN(c1nc(C(=O)NCCC(C)(C)C)cs1)S(C)(=O)=O` [Compound 10]: the concentration giving a half-maximal response (EC50) in data set [1] was found to be 29 µM. The activity at 2 µM in data set [1] (>2.0 aggregation enhanced) came out at 49.6 ± 9.6%. Further, in data set [2], the CC50 at 24 h is 191 ± 26 µM.

For the compound `Cn1cccc1CNC(=O)c1csc(NS(=O)(=O)CCO)n1` [Compound 11], in data set [1] (>2.0 aggregation enhanced), the activity at 2 µM amounted to 91.7 ± 18.8%. Moreover, the CC50 at 24 h in data set [2] was determined as 222 ± 35 µM.

Take `CS(=O)(=O)Nc1nc(C(=O)NCc2nc3cc(Cl)ccc3[nH]2)cs1` [Compound 4]: in data set [1] (>2.0 aggregation enhanced), the activity at 2 µM was found to be 480 ± 114%. Also, the CC50 at 24 h in data set [2] stood at 264 ± 27 µM.

With `CNS(=O)(=O)Nc1nc(C(=O)NCc2cc(-c3ccccc3)[nH]n2)cs1` [Compound 23], in data set [1] (>2.0 aggregation enhanced), the activity at 2 µM is 98.5 ± 10.1%. For the same compound, the CC50 at 24 h in data set [2] was determined as 226 ± 40 µM.

With `CN(c1nc(C(=O)NCc2ccc[nH]2)cs1)S(C)(=O)=O` [Compound 7], in data set [1] (>2.0 aggregation enhanced), the activity at 2 µM came out at 44.4 ± 20.8%. For the same compound, in data set [2], the CC50 at 24 h was 216 ± 46 µM.

Regarding `CNS(=O)(=O)Nc1nc(C(=O)NCc2cc3ccccc3[nH]2)cs1` [Compound 21], in data set [1] (>2.0 aggregation enhanced), the activity at 2 µM was determined as 217 ± 85.6%. For the same compound, in data set [2], the CC50 at 24 h was determined as 227 ± 30 µM.

As for `O=C(NCc1nc2ccc(Cl)cc2[nH]1)c1csc(NS(=O)(=O)CF)n1` [Compound 18], in data set [1] (>2.0 aggregation enhanced), the activity at 2 µM was found to be 14.1 ± 3.9%. In addition, in data set [2], the CC50 at 24 h is 225 ± 38 µM.

With `CN(C)c1ccc2nc3ccc(N(C)C)cc3[s+]c2c1.[Cl-]` [MT, reference compound], the “tau aggregation level, % of that measured in its absence” value in data set [1] (MT at 1 μM) came out at 9.6%.

On to `CNS(=O)(=O)Nc1nc(C(=O)NCCC(C)(C)C)cs1` [Compound 24], for which the activity at 2 µM in data set [1] (>2.0 aggregation enhanced) amounted to 349 ± 106%. Also, the CC50 at 24 h in data set [2] is 235 ± 44 µM.
